Source: ChEMBL document CHEMBL4033800, “Further Developments of the Phenyl-Pyrrolyl Pentane Series of Nonsteroidal Vitamin D Receptor Modulators as Anticancer Agents” (J Med Chem, 2018)

System: MCF7
Experiment: Antiproliferative activity against human MCF7 cells after 48 hrs by MTT assay
Type: functional, cell-based
Conditions: MCF7, 48 h

| Compound | IC50 [µM] |
| --- | --- |
| CCn1c(C(=O)NCCN(C)C)ccc1C(CC)(CC)c1ccc(OCCC(O)(CC)CC)c(C)c1 | 0.43 |
| CCn1c(C(=O)NC(C)C(=O)O)ccc1C(CC)(CC)c1ccc(OCCC(O)(CC)CC)c(C)c1 (stereo not drawn) | 19.7 |
| CCC(C)C(CO)NC(=O)c1ccc(C(CC)(CC)c2ccc(OCCC(O)(CC)CC)c(C)c2)n1CC (stereo not drawn) | 29.1 |
| CCn1c(C(=O)NCCN)ccc1C(CC)(CC)c1ccc(OCCC(O)(CC)CC)c(C)c1 | 0.67 |
| C#CCCOC(=O)c1ccc(C(CC)(CC)c2ccc(OCCC(O)(CC)CC)c(C)c2)n1CC | > 50 |

Other lines, results leading:

| IC50 [µM] | Compound |
| --- | --- |
| > 50 | CCn1c(C(=O)Nc2cccc(C(F)(F)F)c2)ccc1C(CC)(CC)c1ccc(OCCC(O)(CC)CC)c(C)c1 |
| > 50 | CCn1c(C(=O)NCC#N)ccc1C(CC)(CC)c1ccc(OCCC(O)(CC)CC)c(C)c1 |
| 10.2 | CCn1c(C(=O)NC(CC(=O)O)C(=O)OC)ccc1C(CC)(CC)c1ccc(OCCC(O)(CC)CC)c(C)c1 (stereo not drawn) |
| 2.87 | CCn1c(C(=O)N(C)CCO)ccc1C(CC)(CC)c1ccc(OCCC(O)(CC)CC)c(C)c1 |
| > 50 | C#CC(C)OC(=O)c1ccc(C(CC)(CC)c2ccc(OCCC(O)(CC)CC)c(C)c2)n1CC (stereo not drawn) |
| 11.3 | CCC(C)C(NC(=O)c1ccc(C(CC)(CC)c2ccc(OCCC(O)(CC)CC)c(C)c2)n1CC)C(=O)O (stereo not drawn) |

System: PC-3
Experiment: Antiproliferative activity against human PC3 cells after 48 hrs by MTT assay
Type: functional, cell-based
Conditions: PC-3, 48 h

| Compound | IC50 [µM] |
| --- | --- |
| CCn1c(C(=O)NCCN(C)C)ccc1C(CC)(CC)c1ccc(OCCC(O)(CC)CC)c(C)c1 | 0.87 |
| CCn1c(C(=O)NC(C)C(=O)O)ccc1C(CC)(CC)c1ccc(OCCC(O)(CC)CC)c(C)c1 (stereo not drawn) | 11.7 |
| CCC(C)C(CO)NC(=O)c1ccc(C(CC)(CC)c2ccc(OCCC(O)(CC)CC)c(C)c2)n1CC (stereo not drawn) | 28.4 |
| CCn1c(C(=O)NCCN)ccc1C(CC)(CC)c1ccc(OCCC(O)(CC)CC)c(C)c1 | 2.42 |
| C#CCCOC(=O)c1ccc(C(CC)(CC)c2ccc(OCCC(O)(CC)CC)c(C)c2)n1CC | > 50 |

Other lines, results leading:

| IC50 [µM] | Compound |
| --- | --- |
| 23.8 | CCn1c(C(=O)Nc2cccc(C(F)(F)F)c2)ccc1C(CC)(CC)c1ccc(OCCC(O)(CC)CC)c(C)c1 |
| 17.8 | CCn1c(C(=O)NCC#N)ccc1C(CC)(CC)c1ccc(OCCC(O)(CC)CC)c(C)c1 |
| 11.2 | CCn1c(C(=O)NC(CC(=O)O)C(=O)OC)ccc1C(CC)(CC)c1ccc(OCCC(O)(CC)CC)c(C)c1 (stereo not drawn) |
| 3.09 | CCn1c(C(=O)N(C)CCO)ccc1C(CC)(CC)c1ccc(OCCC(O)(CC)CC)c(C)c1 |
| 14.8 | C#CC(C)OC(=O)c1ccc(C(CC)(CC)c2ccc(OCCC(O)(CC)CC)c(C)c2)n1CC (stereo not drawn) |
| 13.8 | CCC(C)C(NC(=O)c1ccc(C(CC)(CC)c2ccc(OCCC(O)(CC)CC)c(C)c2)n1CC)C(=O)O (stereo not drawn) |

System: Caco-2
Experiment: Antiproliferative activity against human Caco2 cells after 48 hrs by MTT assay
Type: functional, cell-based
Conditions: Caco-2, 48 h

| Compound | IC50 [µM] |
| --- | --- |
| CCn1c(C(=O)NCCN(C)C)ccc1C(CC)(CC)c1ccc(OCCC(O)(CC)CC)c(C)c1 | 1.14 |
| CCn1c(C(=O)NC(C)C(=O)O)ccc1C(CC)(CC)c1ccc(OCCC(O)(CC)CC)c(C)c1 (stereo not drawn) | 46.5 |
| CCC(C)C(CO)NC(=O)c1ccc(C(CC)(CC)c2ccc(OCCC(O)(CC)CC)c(C)c2)n1CC (stereo not drawn) | > 50 |
| CCn1c(C(=O)NCCN)ccc1C(CC)(CC)c1ccc(OCCC(O)(CC)CC)c(C)c1 | 1.74 |
| C#CCCOC(=O)c1ccc(C(CC)(CC)c2ccc(OCCC(O)(CC)CC)c(C)c2)n1CC | > 50 |

Second part, the compound after the results:

| IC50 [µM] | Compound |
| --- | --- |
| > 50 | CCn1c(C(=O)Nc2cccc(C(F)(F)F)c2)ccc1C(CC)(CC)c1ccc(OCCC(O)(CC)CC)c(C)c1 |
| > 50 | CCn1c(C(=O)NCC#N)ccc1C(CC)(CC)c1ccc(OCCC(O)(CC)CC)c(C)c1 |
| 25.2 | CCn1c(C(=O)NC(CC(=O)O)C(=O)OC)ccc1C(CC)(CC)c1ccc(OCCC(O)(CC)CC)c(C)c1 (stereo not drawn) |
| 0.074 | CCn1c(C(=O)N(C)CCO)ccc1C(CC)(CC)c1ccc(OCCC(O)(CC)CC)c(C)c1 |
| > 50 | C#CC(C)OC(=O)c1ccc(C(CC)(CC)c2ccc(OCCC(O)(CC)CC)c(C)c2)n1CC (stereo not drawn) |
| 20 | CCC(C)C(NC(=O)c1ccc(C(CC)(CC)c2ccc(OCCC(O)(CC)CC)c(C)c2)n1CC)C(=O)O (stereo not drawn) |

System: HepG2
Experiment: Antiproliferative activity against human HepG2 cells after 48 hrs by MTT assay
Type: functional, cell-based
Conditions: HepG2, 48 h

| Compound | IC50 [µM] |
| --- | --- |
| CCn1c(C(=O)NCCN(C)C)ccc1C(CC)(CC)c1ccc(OCCC(O)(CC)CC)c(C)c1 | 0.24 |
| CCn1c(C(=O)NC(C)C(=O)O)ccc1C(CC)(CC)c1ccc(OCCC(O)(CC)CC)c(C)c1 (stereo not drawn) | 1.74 |
| CCC(C)C(CO)NC(=O)c1ccc(C(CC)(CC)c2ccc(OCCC(O)(CC)CC)c(C)c2)n1CC (stereo not drawn) | > 50 |
| CCn1c(C(=O)NCCN)ccc1C(CC)(CC)c1ccc(OCCC(O)(CC)CC)c(C)c1 | 1.59 |
| C#CCCOC(=O)c1ccc(C(CC)(CC)c2ccc(OCCC(O)(CC)CC)c(C)c2)n1CC | > 50 |

Other lines, results leading:

| IC50 [µM] | Compound |
| --- | --- |
| > 50 | CCn1c(C(=O)Nc2cccc(C(F)(F)F)c2)ccc1C(CC)(CC)c1ccc(OCCC(O)(CC)CC)c(C)c1 |
| > 50 | CCn1c(C(=O)NCC#N)ccc1C(CC)(CC)c1ccc(OCCC(O)(CC)CC)c(C)c1 |
| 10.7 | CCn1c(C(=O)NC(CC(=O)O)C(=O)OC)ccc1C(CC)(CC)c1ccc(OCCC(O)(CC)CC)c(C)c1 (stereo not drawn) |
| 0.51 | CCn1c(C(=O)N(C)CCO)ccc1C(CC)(CC)c1ccc(OCCC(O)(CC)CC)c(C)c1 |
| > 50 | C#CC(C)OC(=O)c1ccc(C(CC)(CC)c2ccc(OCCC(O)(CC)CC)c(C)c2)n1CC (stereo not drawn) |
| 2.62 | CCC(C)C(NC(=O)c1ccc(C(CC)(CC)c2ccc(OCCC(O)(CC)CC)c(C)c2)n1CC)C(=O)O (stereo not drawn) |

System: L02
Experiment: Antiproliferative activity against human L02 cells after 48 hrs by MTT assay
Type: cell-based
Conditions: L02, 48 h

| Compound | IC50 [µM] |
| --- | --- |
| CCn1c(C(=O)Nc2cccc(C(F)(F)F)c2)ccc1C(CC)(CC)c1ccc(OCCC(O)(CC)CC)c(C)c1 | > 50 |
| CCn1c(C(=O)NCC#N)ccc1C(CC)(CC)c1ccc(OCCC(O)(CC)CC)c(C)c1 | > 50 |
| CCn1c(C(=O)NCCN(C)C)ccc1C(CC)(CC)c1ccc(OCCC(O)(CC)CC)c(C)c1 | 0.99 |
| CCn1c(C(=O)NC(C)C(=O)O)ccc1C(CC)(CC)c1ccc(OCCC(O)(CC)CC)c(C)c1 (stereo not drawn) | 4.04 |
| CCC(C)C(CO)NC(=O)c1ccc(C(CC)(CC)c2ccc(OCCC(O)(CC)CC)c(C)c2)n1CC (stereo not drawn) | > 50 |
| CCn1c(C(=O)NCCN)ccc1C(CC)(CC)c1ccc(OCCC(O)(CC)CC)c(C)c1 | 2.94 |
| CCn1c(C(=O)NC(CC(=O)O)C(=O)OC)ccc1C(CC)(CC)c1ccc(OCCC(O)(CC)CC)c(C)c1 (stereo not drawn) | 7.59 |
| C#CCCOC(=O)c1ccc(C(CC)(CC)c2ccc(OCCC(O)(CC)CC)c(C)c2)n1CC | > 50 |
| CCn1c(C(=O)N(C)CCO)ccc1C(CC)(CC)c1ccc(OCCC(O)(CC)CC)c(C)c1 | 2.05 |
| C#CC(C)OC(=O)c1ccc(C(CC)(CC)c2ccc(OCCC(O)(CC)CC)c(C)c2)n1CC (stereo not drawn) | > 50 |
| CCC(C)C(NC(=O)c1ccc(C(CC)(CC)c2ccc(OCCC(O)(CC)CC)c(C)c2)n1CC)C(=O)O (stereo not drawn) | 9.99 |

Target: T1, Vitamin D3 receptor (Homo sapiens, UniProt P11473)
T1 sequence (P11473 whole entry): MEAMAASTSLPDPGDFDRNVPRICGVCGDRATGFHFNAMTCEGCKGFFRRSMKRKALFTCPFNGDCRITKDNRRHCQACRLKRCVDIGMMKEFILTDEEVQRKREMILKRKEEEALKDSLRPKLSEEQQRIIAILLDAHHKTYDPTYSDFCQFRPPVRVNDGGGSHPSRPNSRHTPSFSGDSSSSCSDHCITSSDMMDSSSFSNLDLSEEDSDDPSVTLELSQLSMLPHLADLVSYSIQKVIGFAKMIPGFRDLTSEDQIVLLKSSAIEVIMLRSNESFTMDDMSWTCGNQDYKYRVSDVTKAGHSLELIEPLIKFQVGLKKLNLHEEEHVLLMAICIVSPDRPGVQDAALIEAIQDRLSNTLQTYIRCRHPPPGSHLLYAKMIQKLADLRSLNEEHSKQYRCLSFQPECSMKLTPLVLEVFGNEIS
Experiment: Displacement of fluormone VDR red from human full length VDR after 4 hrs by fluorescence polarization assay
Conditions: not given

| IC50 [µM] | Compound |
| --- | --- |
| 0.825 | CCn1c(C(=O)NCC#N)ccc1C(CC)(CC)c1ccc(OCCC(O)(CC)CC)c(C)c1 |

System: MCF7
Experiment: Induction of cell cycle arrest in human MCF7 cells assessed as accumulation at G0/G1 phase at 1 uM after 24 hrs by propidium iodide-staining based flow cytometry (reference value: 56.03%)
Type: functional
Conditions: not given

| Compound | Activity [%] |
| --- | --- |
| Cc1cc(C2(c3ccc(OCC(=O)C(C)(C)C)c(C)c3)CCCCC2)ccc1OCC(=O)C(C)(C)C | 59.74 |

System: MCF7
Experiment: Induction of cell cycle arrest in human MCF7 cells assessed as accumulation at G2/M phase at 1 uM after 24 hrs by propidium iodide-staining based flow cytometry (reference value: 12.41%)
Type: functional
Conditions: not given

| Compound | Activity [%] |
| --- | --- |
| Cc1cc(C2(c3ccc(OCC(=O)C(C)(C)C)c(C)c3)CCCCC2)ccc1OCC(=O)C(C)(C)C | 11.41 |

System: MCF7
Experiment: Induction of cell cycle arrest in human MCF7 cells assessed as accumulation at S phase at 1 uM after 24 hrs by propidium iodide-staining based flow cytometry (reference value: 31.55%)
Type: functional
Conditions: not given

| Compound | Activity [%] |
| --- | --- |
| Cc1cc(C2(c3ccc(OCC(=O)C(C)(C)C)c(C)c3)CCCCC2)ccc1OCC(=O)C(C)(C)C | 28.85 |

System: MCF7
Experiment: Induction of apoptosis in human MCF7 cells assessed as viable cells at 1 uM after 24 hrs by Annexin V-FITC/propidium iodide-staining based flow cytometry (reference value: 98.2%)
Type: functional
Conditions: MCF7, 24 h, read-out: Activity

| Compound | viability at 1 µM [%] |
| --- | --- |
| Cc1cc(C2(c3ccc(OCC(=O)C(C)(C)C)c(C)c3)CCCCC2)ccc1OCC(=O)C(C)(C)C | 88.9 |

System: MCF7
Experiment: Induction of apoptosis in human MCF7 cells assessed as early apoptotic cells at 1 uM after 24 hrs by Annexin V-FITC/propidium iodide-staining based flow cytometry (reference value: 1.74%)
Type: functional
Conditions: not given

| Compound | Activity [%] |
| --- | --- |
| Cc1cc(C2(c3ccc(OCC(=O)C(C)(C)C)c(C)c3)CCCCC2)ccc1OCC(=O)C(C)(C)C | 8.2 |

System: MCF7
Experiment: Induction of apoptosis in human MCF7 cells assessed as late apoptotic cells at 1 uM after 24 hrs by Annexin V-FITC/propidium iodide-staining based flow cytometry (reference value: 0.062%)
Type: functional
Conditions: not given

| Compound | Activity [%] |
| --- | --- |
| Cc1cc(C2(c3ccc(OCC(=O)C(C)(C)C)c(C)c3)CCCCC2)ccc1OCC(=O)C(C)(C)C | 2.53 |

System: MCF7
Experiment: Induction of apoptosis in human MCF7 cells assessed as necrotic cells at 1 uM after 24 hrs by Annexin V-FITC/propidium iodide-staining based flow cytometry (reference value: 0.031%)
Type: functional
Conditions: not given

| Compound | Activity [%] |
| --- | --- |
| Cc1cc(C2(c3ccc(OCC(=O)C(C)(C)C)c(C)c3)CCCCC2)ccc1OCC(=O)C(C)(C)C | 0.33 |
